From patent publication US20130012479A1, “POLYMORPHS OF 6-(PIPERIDIN-4-YLOXY)-2H-ISOQUINOLIN-1-ONE HYDROCHLORIDE” (SANOFI, priority 2011, published 2013) come the findings set out here.

SMILES strings stand for the structures. Entries after “also recorded” stand apart in the source; their conditions may differ. Structures can show the parent of a compound that is named as a salt. Bounds are passed on as bounds.

Format in all cases: physicochemical
A short description of data set [1]: Temperature-resolved XRPD, DSC and TGA on heating. Particulars: for solid-solid transition prior to melting: on heating. How it is done: In this temperature range, transformation to phase 3 was observed as determined by XRPD.
(§1) All X-ray powder diffraction was performed with Stoe Stadi-P transmission diffractometers using CuKα1 radiation (Lambda is 1.54060 Angström). For room temperature powder diffraction, linear position sensitive detectors were used while for temperature-resolved XRPD image plate position sensitive detectors (IP-PSDs) were used. Unless stated otherwise, X-ray powder diffraction was performed at room temperature. Dry samples were investigated in a flat preparation whereas suspensions were investigated in quartz glass capillaries. The measured data were evaluated and plotted with the Software WinXPOW V2.12.
The thermogravimetric analyses were performed with a METTLER TGA851e (module TGA/SDTA851e/SF1100/042). 100 μl Al crucibles sealed with lid were used. The sample changer punches a pinhole into the lid immediately before the start of the measurement. The oven cell is purged with a nitrogen gas flow of about 50 mL/min. The measurements typically start with a hold time of about 25 min at 25° C., followed by heating of the sample with a rate of 10°/min.
All DSC measurements were performed with a Mettler DSC822e (module DSC822e/700/109/414935/0025). If not indicated differently, 40 μl Al crucibles with sealed lid and hole were used. All measurements were carried out in a nitrogen gas flow of 50 mL/minute. The heating rate was 10° C./minute unless indicated otherwise. Temperature and heat flow were calibrated via the melting peak of an indium reference

Data set [2] is described as follows: Dynamic vapor sorption (DVS) water vapor sorption and desorption isotherms. The following applies: 25° C. How it is done: Moreover, the dihydrate may also be characterized by its DVS (dynamic vapor sorption) water vapor sorption and desorption isotherms measured at 25° C. as shown in FIG. 3. Before starting the sorption cycle the dihydrate sample is treated with dry nitrogen gas resulting in a transformation into phase 2 as shown by humidity resolved XRPD. […] A weight loss starts below 20% relative humidity and becomes strong below 10%, especially below 5%. The change in mass at low relative humidity is completely reversible and when the humidity increases again, the rehydration proceeds rapidly with small samples. However, for bulk samples rehydration of over-dried samples can take considerably longer and rehydration may require several days. Almost identical water sorption and desorption isotherms are observed at 40° C.
Moreover, phase 3 may also be characterized by its DVS (dynamic vapor sorption) water vapor sorption and desorption isotherms measured at 25° C. […] With decreasing humidity the dihydrate converts back at low humidity (below about 10% r.h.) into phase 2 (cycle 1, desorption). Phase 2 then converts into the dihydrate with increasing humidity and along the same isotherm it converts back with decreasing humidity into polymorph 2 (cycle 2, see also FIG. 3)
Moisture sorption/desorption isotherms were recorded on a DVS-1 from Surface Measurement Systems. […] Typical total measurement times for both cycles are about 20-30 hours.

Data set [3] can be described thus: Humidity-controlled (humidity-resolved) XRPD in a humidity chamber. Particulars: for time until transformation into the dihydrate at 95% relative humidity: sample held at 95% r.h. How it is done: When humidity-controlled XRPD was performed at 25 and 40° C., widely identical results were obtained.
Exposure to elevated humidity causes transformation to the dihydrate as determined with humidity-controlled XRPD performed at 25° C. […] Phase 1 transformed into the dihydrate after about 15 min at 95%, which in turn changed to phase 2 after about 40 min at 2% r.h.
Exposure to elevated humidity causes transformation to the dihydrate as determined by humidity-controlled XRPD at 25° C. […] As a result phase 3 transformed into the hydrate after about 30 min at 95%, which in turn changed to phase 2 after about 30 min at 2% r.h.
Exposure to elevated humidity causes transformation to the dihydrate as determined by humidity-controlled XRPD. […] As a result phase 4 transformed into the dihydrate after about 15 min at 95%, which in turn changed to phase 2 after about 20 min at 2% r.h.
as §1

Data set [4] can be described thus: Storage under usual storage conditions (25° C./65% relative humidity). An excerpt: Moreover, the corresponding amorphous material is hygroscopic and the water content varies much stronger with the relative humidity compared to the dihydrate. This water uptake and variability in water content makes precise dosing during drug product manufacturing difficult. […] Accordingly, the crystalline dihydrate is therefore the preferred solid form for drug product manufacturing.

A short description of data set [5]: Maturation experiments (slurry conversion) of suspensions. Particulars: for solid phase after maturation: 20° C., 35 days; for relative stability of the phase from maturation experiments: suspensions of phase mixtures in dry organic solvents, temperature range from 0 to 40° C. How it is done: By maturation experiments (slurry conversion) at the given temperature the relative stability of the polymorphs of compound (I) and the hydrate was investigated.
The following maturation experiment was performed by stirring the suspension under the specified conditions, starting from the dihydrate. The sample was investigated by XRPD in suspension, after vacuum filtration as well as after drying over night at 40° C. in vacuum (<50 mbar). The isolated material was also investigated by DSC and TGA.
a) Maturation of 0.210 g dihydrate of compound (I) in 0.4 mL of water at 20° C. for 35 days. Similar, maturation of the dihydrate was done in water/methanol (vol/vol 1:1) and in water/ethanol (vol/vol 1:1).
The following maturation experiments were performed by stirring the suspension under the specified conditions and isolating the solid by vacuum filtration, starting from dihydrate of compound (I). The sample was investigated by XRPD in suspension, after vacuum filtration as well as after drying. The isolated material was also investigated by DSC and TGA.
(b) Maturation of 0.203 g of dihydrate of compound (I) in 1.2 mL of methanol at 20° C. for 35 days. (c) Maturation was also done as in (b) by using ethanol, 1-propanol or 2-propanol.
The following maturation experiments of suspensions of phase mixtures of the dihydrate of compound (I) and phases consisting of polymorphs 1, 3 and 4 were performed at 0, 20 and 40° C. The product was isolated by vacuum filtration and analyzed after drying.
e) Maturation of a mixture of 0.3 mg phase 1, 23.9 mg phase 3, 29.9 mg phase 4 and 27.9 mg of the dihydrate in 0.7 mL 2-propanol at 0° C. for 2 weeks. f) Maturation of a mixture of 0.3 mg phase 1, 27.2 mg phase 3, 18.1 mg phase 4 and 29.6 mg of the dihydrate in 2.0 mL 2-butanol at 0° C. for 2 weeks. g) Similar experiments as in e) and f) were done with corresponding mixtures of phase 1, phase 3, phase 4 and the dihydrate in 2-propanol and 2-butanol at 20° C. and at 40° C., respectively

Data set [6] in a line: Drying of the dihydrate, retention of crystal structure. The following applies: dihydrate dried. An excerpt: In a further embodiment of the hydrate the water content is 11.4% (w/w). In a further embodiment the hydrate contains 2.0 molecules water per molecule (I). Although the hydrate phase typically contains about 10-12.5% water it can also occur with lower water content. The crystal structure of the hydrate remains even if the dihydrate is dried and the remaining water content is down to about 3%. Water uptake is reversible if humidity in the environment is raised again. The water content in the isolated product depends on the drying conditions used during work up of the hydrate after crystallisation.

Data set [7] in a line: Stability of the solvate outside the mother liquor. Particulars: in the presence of humidity starts to transform to the hydrate. An excerpt:
Thus, a further aspect of the present invention relates to the use of the methyl acetate solvate of compound (I) for the production of the hydrate, for example by subjecting it to conditions, such as an elevated temperature and/or humidity which facilitate the loss of methyl acetate and attracting water.

Data set [8] is described as follows: Suspension in water, phase transformation. How it is done:
(§2) Also storage of phase 3 at 20° C. and 75% relative humidity caused complete conversion to the dihydrate within 3 weeks. The rate of conversion correlates with the relative humidity. When suspended in water, complete transformation into the dihydrate was observed almost immediately (<10 min).

The nature of data set [9]: Storage at 20° C. and 75% relative humidity. How it is done:
Also storage of phase 1 at 20° C. and 75% relative humidity caused complete conversion to the dihydrate within 3 weeks. The rate of conversion correlates with the relative humidity.
as §2
Also storage of phase 4 at 20° C. and 75% relative humidity caused complete conversion to the dihydrate within 3 weeks. The rate of conversion apparently correlates with the relative humidity.

[10] abbreviates: listed as phase 1, hydrochloride.
Setting [11] is: listed as phase 3, hydrochloride.
Setting [12] is: listed as phase 4, hydrochloride.

In the case of `O=c1[nH]ccc2cc(OC3CCNCC3)ccc12` [1,4-dioxane solvate, 6-(Piperidin-4-yloxy)-2H-isoquinolin-1-one hydrochloride×0.5 1,4-dioxane solvate], the “stability of the solvate on heating” value in data set [1] is recorded as “relatively stable”.
As to `O=c1[nH]ccc2cc(OC3CCNCC3)ccc12` [amorphous material, 6-(Piperidin-4-yloxy)-2H-isoquinolin-1-one hydrochloride], the “hygroscopicity / water content as a function of relative humidity” value in data set [2] (hydrochloride) is given as “hygroscopic”.
As to `O=c1[nH]ccc2cc(OC3CCNCC3)ccc12` [dihydrate, 6-(Piperidin-4-yloxy)-2H-isoquinolin-1-one hydrochloride dihydrate], the “relative humidity at which reversible transformation into phase 2 was observed” value in [3] (25 and 40° C.) is listed as 2%. For the same compound, the “time until the dihydrate changed to phase 2 at 2% r.h.” value in [3] (sample held at 2% r.h., hydrochloride dihydrate) is given as “about 30 min”. The “relative humidity below which the dihydrate converts into phase 2” value in [2] (cycle 1, desorption) is recorded as “below 10%”. In [2] (desorption cycle), the “relative humidity below which weight loss starts” value is “below 20%”. Moreover, the “hygroscopicity / water content as a function of relative humidity” value in data set [2] (hydrochloride dihydrate) is listed as “quite constant water content”. Besides, the “water content in the desorption cycle” value in data set [2] (relative humidities between 95% and 20%) is “almost constant”. The “stability under usual storage conditions” value in [4] is “stable for more than two years”. The decomposition on storage entry in data set [4] (more than two years) is “no detectable decomposition”. Besides, the “solid phase after maturation” value in data set [5] (2-butanol, after drying) is recorded as “Polymorph 4 was obtained”; in data set [5] (methanol, ethanol, 1-propanol or 2-propanol), “polymorph 3 was obtained”; in [5] (water, water/methanol (1:1) or water/ethanol (1:1)), “remained as dihydrate”. The “temperature below which the form is stable” value in data set [1] was “below 90 °C”. Further, in data set [1] (temperature-resolved XRPD, on heating with loss of water), the “temperature at which transformation to phase 3 starts” value is “about 90 °C”. Further, the “remaining water content down to which the crystal structure of the hydrate remains” value in [6] is on record as “about 3%”.
Regarding `O=c1[nH]ccc2cc(OC3CCNCC3)ccc12` [methyl acetate solvate, 6-(Piperidin-4-yloxy)-2H-isoquinolin-1-one hydrochloride], in [7], the “stability of the solvate outside the mother liquor” value was “only moderately stable”.
As to `O=c1[nH]ccc2cc(OC3CCNCC3)ccc12` [polymorph 1, 6-(Piperidin-4-yloxy)-2H-isoquinolin-1-one hydrochloride], the “time until transformation into the dihydrate at 95% relative humidity” value in [3] (listed as Phase 1, hydrochloride) is “about 15 min”. Besides, in data set [5] (setting [10]), the “relative stability of the phase from maturation experiments” value (“relative stability of the phase” below) is listed as “only a metastable polymorph”. In data set [1] (setting [10]), the “solid-solid transition prior to melting” value is “melted without preceding solid-solid transitions; also recorded: No transformation into another crystalline phase”.
Regarding `O=c1[nH]ccc2cc(OC3CCNCC3)ccc12` [polymorph 2, 6-(Piperidin-4-yloxy)-2H-isoquinolin-1-one hydrochloride], the “solid-solid transition prior to melting” value in [1] (listed as phase 2, hydrochloride) is recorded as “melted without preceding solid-solid transitions”.
For `O=c1[nH]ccc2cc(OC3CCNCC3)ccc12` [polymorph 3, 6-(Piperidin-4-yloxy)-2H-isoquinolin-1-one hydrochloride], in data set [3] (setting [11]), the “time until transformation into the dihydrate at 95% relative humidity” value is “about 30 min”. Also, the “relative humidity above which the phase changed into the dihydrate” value in [2] (cycle 1, sorption) was “above 80%”. The “relative stability at low relative humidity” value in [5] (at and around room temperature, less than about 10% relative humidity) is on record as “the most stable phase”. For the same compound, the “relative stability of the phase” value in data set [5] (setting [11]) is “the most stable anhydrous phase; also recorded: thermodynamically most stable anhydrous form”. For the same compound, in data set [1] (setting [11]), the “solid-solid transition prior to melting” value was “melted without preceding solid-solid transitions; also recorded: No transformation into another crystalline phase”. Moreover, the “time to complete transformation into the dihydrate when suspended in water” value in [8] is less than 10 min.
With `O=c1[nH]ccc2cc(OC3CCNCC3)ccc12` [polymorph 4, 6-(Piperidin-4-yloxy)-2H-isoquinolin-1-one hydrochloride], in data set [3] (setting [12]), the “time until transformation into the dihydrate at 95% relative humidity” value is “about 15 min”. In addition, the “time to complete conversion to the dihydrate on storage” value in data set [9] is listed as not above 3 weeks. Also, in data set [5] (setting [12]), the “relative stability of the phase” value was “only a metastable one”. The “solid-solid transition prior to melting” value in data set [1] (setting [12]) is listed as “No transformation into another crystalline phase 1, 2 or 3; also recorded: melted without preceding solid-solid transitions”.
